The assay concerns the target T1, BCL6 (Homo sapiens, UniProt P41182).
T1 construct: endogenous in cells; host or cells: T47D breast cancer epithelial cells
As to the kind of experiment: Immunofluorescence protocol for high content imaging of BCL6 (degradation) in T47D cells, 3 days compound treatment. The following applies: for DC50: read-out: Mean DC50 (nM)* category; for Dmax: read-out: Mean Dmax (%)** category. It is filed as cell-based. The essentials: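 Remaining BCL6 in breast cancer T47D cells was measured by high-content immunofluorescence imaging after 3 days of treatment with serially diluted compound (top 0.1 or 1 μM). Nuclei were stained with Hoechst and cells with CellMask.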

Where [1] appears, read: T47D cells, 3 days compound treatment.

SMILES strings stand for the structures. Like-named read-outs stand apart in the source and are kept apart here.

For the compound `CNC(=O)COc1cc2cc(Nc3nc(N4CCC(CN5CCC6(CC5)CN(c5cc(F)c7c(c5)CN(C5CCC(=O)NC5=O)C7=O)C6)CC4)ncc3Cl)ccc2n(C(C)C)c1=O` (stereo not shown) [Compound 80, 2-{[6-({5-chloro-2-[4-({2-[2-(2,6-dioxopiperidin-3-yl)-7-fluoro-1-oxo-2,3-dihydro-1H-isoindol-5-yl]-2,7-diazaspiro[3.5]nonan-7-yl}methyl)piperidin-1-yl]pyrimidin-4-yl}amino)-2-oxo-1-(propan-2-yl)-1,2-dihydroquinolin-3-yl]oxy}-N-methylacetamide], under setting [1], the DC50 was under 10 nM and the Dmax was in the range of 50 to 70%.

`CNC(=O)COc1cc2cc(Nc3nc(N4CCOC5(CN(CCC6CCN(c7cccc8c7C(=O)N(C7CCC(=O)NC7=O)C8=O)CC6)C5)C4)ncc3Cl)ccc2n(C(C)C)c1=O` (stereo not shown) [Compound 16]: under setting [1], the DC50 was at least 100 nM.

As to `CNC(=O)COc1cc2cc(Nc3nc(N4CCN(C(C)(C)C5CCC6(CCN(c7ccc8c(c7)CN(C7CCC(=O)NC7=O)C8=O)C6)C5)CC4)ncc3Cl)ccc2n(C(C)C)c1=O` (stereo not shown) [Compound 74, 2-{[6-({5-chloro-2-[4-(2-{2-[2-(2,6-dioxopiperidin-3-yl)-1-oxo-2,3-dihydro-1H-isoindol-5-yl]-2-azaspiro[4.4]nonan-7-yl}propan-2-yl)piperazin-1-yl]pyrimidin-4-yl}amino)-2-oxo-1-(propan-2-yl)-1,2-dihydroquinolin-3-yl]oxy}-N-methylacetamide], under setting [1], the DC50 is under 10 nM and the greatest degradation seen (Dmax) was under 50%.

With `CNC(=O)COc1cc2cc(Nc3nc(N4CCC(CN5CCC6(CC5)CN(c5ccc7c(c5F)CN(C5CCC(=O)NC5=O)C7=O)C6(C)C)CC4)ncc3Cl)ccc2n(C(C)C)c1=O` (stereo not shown) [Compound 162, 2-{[6-({5-chloro-2-[4-({2-[2-(2,6-dioxopiperidin-3-yl)-4-fluoro-1-oxo-2,3-dihydro-1H-isoindol-5-yl]-1,1-dimethyl-2,7-diazaspiro[3.5]nonan-7-yl}methyl)piperidin-1-yl]pyrimidin-4-yl}amino)-2-oxo-1-(propan-2-yl)-1,2-dihydroquinolin-3-yl]oxy}-N-methylacetamide], under setting [1], the DC50 was under 10 nM and the Dmax was at least 70%.

`CNC(=O)COc1cc2c(F)c(Nc3nc(N4CCC(O[C@H]5C[C@H](N6CCC(c7ccc8c(c7)C(=O)N(C7CCC(=O)NC7=O)C8=O)CC6)C5)CC4)ncc3Cl)ccc2n(C(C)C)c1=O` (stereo partly shown) [Compound 172, 2-({6-[(5-chloro-2-{4-[(1r,3r)-3-{4-[2-(2,6-dioxopiperidin-3-yl)-1,3-dioxo-2,3-dihydro-1H-isoindol-5-yl]piperidin-1-yl}cyclobutoxy]piperidin-1-yl}pyrimidin-4-yl)amino]-5-fluoro-2-oxo-1-(propan-2-yl)-1,2-dihydroquinolin-3-yl}oxy)-N-methylacetamide]: under setting [1], the DC50 was under 10 nM and the Dmax was at least 70%.

Take `CNC(=O)COc1cc2cc(Nc3nc(N4CCC(O[C@H]5C[C@H](N6CCC7(CCN(c8ccc9c(c8)C(=O)N(C8CCC(=O)NC8=O)C9=O)C7)C6)C5)CC4)ncc3Cl)ccc2n(C(C)C)c1=O` (stereo partly shown) [Compound 339, 2-({6-[(5-chloro-2-{4-[(1r,3r)-3-{7-[2-(2,6-dioxopiperidin-3-yl)-1,3-dioxo-2,3-dihydro-1H-isoindol-5-yl]-2,7-diazaspiro[4.4]nonan-2-yl}cyclobutoxy]piperidin-1-yl}pyrimidin-4-yl)amino]-2-oxo-1-(propan-2-yl)-1,2-dihydroquinolin-3-yl}oxy)-N-methylacetamide]: the DC50 was under 10 nM. Further, for the setting “T47D”, the Dmax lay in the range of 50 to 70%.

Consider `CNC(=O)COc1cc2cc(Nc3nc(N4CCC(O[C@H]5C[C@H](N6C7CCC6CN(c6ccc8c(c6F)CN(C6CCC(=O)NC6=O)C8=O)C7)C5)CC4)ncc3Cl)ccc2n(C(C)C)c1=O` (stereo partly shown) [Compound 406, 2-({6-[(5-chloro-2-{4-[(1r,3r)-3-{3-[2-(2,6-dioxopiperidin-3-yl)-4-fluoro-1-oxo-2,3-dihydro-1H-isoindol-5-yl]-3,8-diazabicyclo [3.2.1]octan-8-yl}cyclobutoxy]piperidin-1-yl}pyrimidin-4-yl)amino]-2-oxo-1-(propan-2-yl)-1,2-dihydroquinolin-3-yl}oxy)-N-methylacetamide], for which the DC50 is under 10 nM. The Dmax (T47D) lay within 50 to 70%.

Consider `CNC(=O)COc1cc2cc(Nc3nc(N4CCC(CN5CCC6(CN(c7ccc8c(c7)C(=O)N(C7CCC(=O)NC7=O)C8=O)C6)CC5(C)C)CC4)ncc3Cl)ccc2n(C(C)C)c1=O` (stereo not shown) [Compound 239, 2-{[6-({5-chloro-2-[4-({2-[2-(2,6-dioxopiperidin-3-yl)-1,3-dioxo-2,3-dihydro-1H-isoindol-5-yl]-6,6-dimethyl-2,7-diazaspiro[3.5]nonan-7-yl}methyl)piperidin-1-yl]pyrimidin-4-yl}amino)-2-oxo-1-(propan-2-yl)-1,2-dihydroquinolin-3-yl]oxy}-N-methylacetamide], for which the DC50 was under 10 nM. For the same compound, the Dmax (T47D) was at least 70%.

For `CNC(=O)COc1cc2cc(Nc3nc(N4CCC(F)(CN5CC(N6CCC(c7ccc8c(c7F)CN(C7CCC(=O)NC7=O)C8=O)CC6)C5)CC4)ncc3Cl)ccc2n(C(C)C)c1=O` (stereo not shown) [Compound 285, 2-({6-[(5-chloro-2-{4-[(3-{4-[2-(2,6-dioxopiperidin-3-yl)-4-fluoro-1-oxo-2,3-dihydro-1H-isoindol-5-yl]piperidin-1-yl}azetidin-1-yl)methyl]-4-fluoropiperidin-1-yl}pyrimidin-4-yl)amino]-2-oxo-1-(propan-2-yl)-1,2-dihydroquinolin-3-yl}oxy)-N-methylacetamide], the DC50 is under 10 nM. Besides, the Dmax (T47D) is at least 70%.

Consider `CNC(=O)COc1cc2cc(Nc3nc(N4CCC(CN5CC[C@]6(CCN(c7ccc8c(c7)CN([C@H]7CCC(=O)NC7=O)C8=O)C6)C5)CC4)ncc3Cl)ccc2n(C(C)C)c1=O` [Compound 1, 2-[(6-{[5-chloro-2-(4-{[(5S)-7-{2-[(3S)-2,6-dioxopiperidin-3-yl]-1-oxo-2,3-dihydro-1H-isoindol-5-yl}-2,7-diazaspiro[4.4]nonan-2-yl]methyl}piperidin-1-yl)pyrimidin-4-yl]amino}-2-oxo-1-(propan-2-yl)-1,2-dihydroquinolin-3-yl)oxy]-N-methylacetamide], for which, under setting [1], the half-maximal degradation concentration (DC50) was under 10 nM and the Dmax is 50 to 70%.

`CNC(=O)COc1cc2cc(Nc3nc(N4CCC(F)(CN5CCC6(CC5)CN(c5ccc7c(c5)C(=O)N(C5CCC(=O)NC5=O)C7=O)C6)CC4)ncc3Cl)ccc2n(C(C)C)c1=O` (stereo not shown) [Compound 43, 2-{[6-({5-chloro-2-[4-({2-[2-(2,6-dioxopiperidin-3-yl)-1,3-dioxo-2,3-dihydro-1H-isoindol-5-yl]-2,7-diazaspiro [3.5]nonan-7-yl}methyl)-4-fluoropiperidin-1-yl]pyrimidin-4-yl}amino)-2-oxo-1-(propan-2-yl)-1,2-dihydroquinolin-3-yl]oxy}-N-methylacetamide]: under setting [1], the 50% degradation concentration (DC50) was 10 to 50 nM and the Dmax lay within 50 to 70%.

For the compound `CNC(=O)COc1cc2cc(Nc3nc(N4CCC(OC5CCC(N6CCC(c7ccc8c(c7)C(=O)N(C7CCC(=O)NC7=O)C8=O)CC6)C5)CC4)ncc3Cl)ccc2n(C(C)C)c1=O` (stereo not shown) [Compound 42, 2-({6-[(5-chloro-2-{4-[(3-{4-[2-(2,6-dioxopiperidin-3-yl)-1,3-dioxo-2,3-dihydro-1H-isoindol-5-yl]piperidin-1-yl}cyclopentyl)oxy]piperidin-1-yl}pyrimidin-4-yl)amino]-2-oxo-1-(propan-2-yl)-1,2-dihydroquinolin-3-yl}oxy)-N-methylacetamide], under setting [1], the DC50 was 10 to 50 nM and the Dmax lay in the range of 50 to 70%.

Consider `CNC(=O)COc1cc2cc(Nc3nc(N4CCC(O[C@H]5C[C@H](N6CCC(c7cc(F)c8c(c7)C(=O)N(C7CCC(=O)NC7=O)C8)C(F)C6)C5)CC4)ncc3Cl)ccc2n(C(C)C)c1=O` (stereo partly shown) [Compound 281, 2-({6-[(5-chloro-2-{4-[(1r,3r)-3-{4-[2-(2,6-dioxopiperidin-3-yl)-7-fluoro-3-oxo-2,3-dihydro-1H-isoindol-5-yl]-3-fluoropiperidin-1-yl}cyclobutoxy]piperidin-1-yl}pyrimidin-4-yl)amino]-2-oxo-1-(propan-2-yl)-1,2-dihydroquinolin-3-yl}oxy)-N-methylacetamide], for which the half-maximal degradation concentration (DC50) was in the range of 10 to 50 nM. Also, the Dmax (T47D) is under 50%.

Consider `CNC(=O)COc1cc2cc(Nc3nc(N4CCN(CC5CCN(c6cc(OC)cc7c6CN(C6CCC(=O)NC6=O)C7=O)CC5)CC4)ncc3Cl)ccc2n(C(C)C)c1=O` (stereo not shown) [Compound 119, 2-{[6-({5-chloro-2-[4-({1-[2-(2,6-dioxopiperidin-3-yl)-6-methoxy-1-oxo-2,3-dihydro-1H-isoindol-4-yl]piperidin-4-yl}methyl)piperazin-1-yl]pyrimidin-4-yl}amino)-2-oxo-1-(propan-2-yl)-1,2-dihydroquinolin-3-yl]oxy}-N-methylacetamide], for which, under setting [1], the DC50 was under 10 nM and the Dmax was in the range of 50 to 70%.

With `CNC(=O)COc1cc2cc(Nc3nc(N4CCN(C(C)(C)C5CCN(c6cc(F)c7c(c6)CN(C6CCC(=O)NC6=O)C7=O)CC5)CC4)ncc3Cl)ccc2n(C(C)C)c1=O` (stereo not shown) [Compound 76, 2-{[6-({5-chloro-2-[4-(2-{1-[2-(2,6-dioxopiperidin-3-yl)-7-fluoro-1-oxo-2,3-dihydro-1H-isoindol-5-yl]piperidin-4-yl}propan-2-yl)piperazin-1-yl]pyrimidin-4-yl}amino)-2-oxo-1-(propan-2-yl)-1,2-dihydroquinolin-3-yl]oxy}-N-methylacetamide], under setting [1], the DC50 is under 10 nM and the Dmax lay in the range of 50 to 70%.

With `CNC(=O)COc1cc2cc(Nc3nc(N4CCC(CN5CC6(CCN(c7cccc8c7CN(C7CCC(=O)NC7=O)C8=O)CC6(F)F)C5)CC4)ncc3Cl)ccc2n(C(C)C)c1=O` (stereo not shown) [Compound 125, 2-{[6-({5-chloro-2-[4-({7-[2-(2,6-dioxopiperidin-3-yl)-1-oxo-2,3-dihydro-1H-isoindol-4-yl]-5,5-difluoro-2,7-diazaspiro[3.5]nonan-2-yl}methyl)piperidin-1-yl]pyrimidin-4-yl}amino)-2-oxo-1-(propan-2-yl)-1,2-dihydroquinolin-3-yl]oxy}-N-methylacetamide], under setting [1], the half-maximal degradation concentration (DC50) is under 10 nM and the maximal degradation (Dmax) was in the range of 50 to 70%.

In general, DC50 refers to the concentration at which degradation of the target reaches its halfway point. In general, Dmax refers to the largest share of the target that was removed.
